From patent US11981669B2, “1,7-naphthyridine derivative and preparation method and use therefor” (CSPC ZHONGQI PHARMACEUTICAL TECHNOLOGY (SHIJIAZHUANG) CO., …, priority 2018, dated 2024)

What was measured:
PHD1 = PHD1 (Homo sapiens (Human), UniProt Q96KS0); experiment: PHD enzyme assay (Eu-VBC TR-fluorescence); type: biochemical
Protocol: (§1) VHL/elongin B/elongin C were constructed, expressed and purified, and VHL was labeled. PHD1, PHD2 and PHD3 were constructed, expressed and purified. VBC protein was labeled with DELFIA Eu-Labeling Kit. A NeutrAvidin 96-well plate was blocked after the addition of 200 μL Blocker Casein to each well, followed by incubation for 30 min. Each well was washed 3 times by adding 200 μL of washing buffer each time. A 200 nM HIF-1a 556-574 solution was prepared with washing buffer, and 100 μL of the solution was added to each well, followed by incubation for 60 min. Each well was washed 3 times by adding 200 μL of washing buffer each time. A 1 mM Biotin solution was prepared with Blocker Casein, and 100 μL of the solution was added to each well, followed by incubation for 30 min. Each well was washed 3 times by adding 200 μL of washing buffer each time. A 20× compound solution was prepared with PHD reaction buffer, with the final concentration of DMSO being 1%. PHD solutions were prepared with PHD reaction buffer, and the concentrations of PHD1, 2, and 3 solutions were 10 ng/μL, 5 ng/μL, and 15 ng/μL, respectively. 95 μL of the PHD solution was added to each compound well, followed by the addition of 5 μL of the compound solution, 95 μL of the PHD solution was added to each full active well, followed by the addition of 5 μL of the PHD reaction buffer; and 100 μL of the PHD reaction buffer was added to each blank well. After mixing homogeneously, the wells were incubated for 60 min. Each well was washed 3 times by adding 200 μL of washing buffer each time A 1 ng/μL Eu-VBC solution was prepared with Eu-VBC binding buffer, and 100 μL of the solution was added to each well, followed by incubation for 60 min. Each well was washed 6 times by adding 200 μL DELFIA Wash Concentrate each time. 100 μL DELFIA Enhancement Solution was added to each well. A microplate reader was used to read TR-Fluorescence at Ex340 and Em615. The flurescence of the sample wells was recorded as FLUsample, the flurescence of the full active wells was recorded as FLU100%, and the flurescence of the blank well was recorded as FLU0%.

PHD3 = PHD3 (Homo sapiens (Human), UniProt Q9H6Z9); experiment: PHD enzyme assay (Eu-VBC TR-fluorescence); type: biochemical
Protocol: as §1

PHD2 = PHD2 (Homo sapiens (Human), UniProt Q9GZT9); experiment: PHD enzyme assay (Eu-VBC TR-fluorescence); type: biochemical
Protocol: as §1, with “A 200 nM HIF-1a 556-574 solution was prepared with washing buffer, and 100 μL of the solution was added to each well, followed by incubation for 60 min.” left out, “PHD solutions were prepared with PHD reaction buffer, and the concentrations of PHD1, 2, and 3 solutions were 10 ng/μL, 5 ng/μL, and 15 ng/μL, respectively. 95 μL of the PHD solution was added to each compound well, followed by the addition of 5 μL of the compound solution, 95 μL of the PHD solution was added to each full active well, followed by the addition of 5 μL of the PHD reaction buffer; and 100 μL of the PHD reaction buffer was added to each blank well.” left out, “A microplate reader was used to read TR-Fluorescence at Ex340 and Em615.” left out

HIF-1α = experiment: Expression of HIF-1α protein in Hep3B cells (western blot, grayscale analysis); type: cell-based, Human; conditions: for fold induction at 30 µM: Homo sapiens, read-out: HIF-1α level of the compound of the present disclosure/HIF-1α level of blank control
Protocol: (§2) A test compound was dissolved in dimethyl sulfoxide into a 100 mM stock solution, and then was diluted with 0.5% FBS-containing DMEM medium into 30 μM, 10 μM and 3 μM for later use. Human liver cancer cells Hep3B were seeded in a six-well plate at a density of 2.25*10^5 cells/well, 2 mL per well. After cultivation overnight, the cells were treated with compounds at different concentrations for 2 h. The proteins were extracted for western blot and further grayscale analysis.

[1] = system: Erythropoietin in liver cancer cells Hep3B; experiment: Expression of erythropoietin in liver cancer cells Hep3B in vitro (EPO ELISA of supernatant); type: cell-based, Human
Protocol: The cells were adherent cultured overnight, and after discarding the used medium. In the 96-well culture plate, the cells were washed once with 0.5% FBS-containing DMEM medium. […] 0.5% FBS-containing DMEM medium was used instead of the drug solution as the control well. After incubation in a 37° C., 5% CO2 incubator for 24 h, the supernatant was taken as a sample and frozen at −20° C. for later use. An Elisa kit (abeam) was used to detect EPO in the cell supernatant. A microplate reader was used to detect the OD value at 450/620 nm.

reticulocytes = experiment: Effect on reticulocytes of normal mice; type: in vivo, Balb/c mice; design: Reticulocytes (RETIC), average: unit not given here; conditions: 10 mg/kg p.o., once; 72 h after administration
Protocol: 72 Balb/c mice, male, were divided into 12 groups, 6 mice in each treatment group. In the positive drug control groups: the mice in the FG-4592 treatment groups were orally administered once, at two doses of 10 mg/kg and 50 mg/kg, and the mice in the rhEPO treatment group was intraperitoneaily injected once, at a dose of 100 IU/kg. The compounds of the present disclosure were all orally administered once at a dose of 10 mg/kg. 72 h after the administration, blood was collected from the orbit of all animals, and subjected to EDTA-K2 anticoagulation. Then reticulocytes (RETIC) were counted with an automatic blood cell analyzer.

hERG channels = hERG channels (Homo sapiens (Human), UniProt Q12809); experiment: cell-based; type: cell-based; conditions: for Inhibitory effect on hERG current at the highest test concentration: human, 30 μM
Protocol: Whole-cell patch clamp technique was used to record hERG current. A cell suspension was added to a 35 mm Petri dish, and the dish was then placed on an inverted microscope stage. After the adherence of cells, they were perfused with extracellular fluid at a flow rate of 1-2 mL/min. A glass microelectrode was drawn by a microelectrode puller in two steps, and the pipette tip resistance was between 2-5 MΩ. After establishing the whole cell recording, the clamp potential was held at −80 mV, followed by depolarization to +60 mV when given voltage stimulation and then repolarization to −50 mV to elicit hERG tail current. All recordings were performed after the current was stable. Extracellular perfusion administration started from a low concentration, staying for 5-10 min at each concentration until the current was stable, and then cells were further perfused with the next concentration.

CYP1A2 = CYP1A2 (Homo sapiens (Human), UniProt P05177); type: in vitro ADME
Source text: (§3) The compounds of the present disclosure were subjected to the CYP450 enzyme inhibition assay.

CYP2C9 = CYP2C9 (Homo sapiens (Human), UniProt P11712); experiment: CYP enzyme inhibition assay; type: in vitro ADME
Source text: as §3

CYP2D6 = CYP2D6 (Homo sapiens (Human), UniProt P10635); experiment: CYP enzyme inhibition assay; type: in vitro ADME
Source text: as §3

CYP3A4-M = CYP3A4-M (Homo sapiens (Human), UniProt P08684); experiment: CYP enzyme inhibition assay; type: in vitro ADME
Source text: as §3

CYP2C19 = CYP2C19 (Homo sapiens (Human), UniProt P33261); experiment: CYP enzyme inhibition assay; type: in vitro ADME
Source text: as §3

erythropoietin = experiment: Expression of erythropoietin in vivo (plasma EPO ELISA after single oral dose); conditions: once; for EPO OD value: plasma 6 hours after administration; for Promotion of expression of erythropoietin in vivo: at 10 mg/kg;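 for all read-outs here: male C57 mice given compound by mouth, five animals per treatment group, with EPO in plasma measured by ELISA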
Protocol: (2) 30 c57 mice, male, were divided into 6 groups, 5 mice in each treatment group. […] 6 hours after the administration, blood was taken, and plasma was collected for EPO detection with an ELISA kit (R&D Co.).

HIF-2α = experiment: Expression of HIF-2α protein in Hep3B cells (western blot, grayscale analysis); type: cell-based, Human; conditions: for fold induction at 30 µM: Homo sapiens, read-out: HIF-2α level of the compound of the present disclosure/HIF-2α level of blank control
Protocol: as §2

[2] = 2 h, compound at 30 μM, 10 μM and 3 μM

hERG channels, sequence (Q12809 whole entry, the tested form may be a part): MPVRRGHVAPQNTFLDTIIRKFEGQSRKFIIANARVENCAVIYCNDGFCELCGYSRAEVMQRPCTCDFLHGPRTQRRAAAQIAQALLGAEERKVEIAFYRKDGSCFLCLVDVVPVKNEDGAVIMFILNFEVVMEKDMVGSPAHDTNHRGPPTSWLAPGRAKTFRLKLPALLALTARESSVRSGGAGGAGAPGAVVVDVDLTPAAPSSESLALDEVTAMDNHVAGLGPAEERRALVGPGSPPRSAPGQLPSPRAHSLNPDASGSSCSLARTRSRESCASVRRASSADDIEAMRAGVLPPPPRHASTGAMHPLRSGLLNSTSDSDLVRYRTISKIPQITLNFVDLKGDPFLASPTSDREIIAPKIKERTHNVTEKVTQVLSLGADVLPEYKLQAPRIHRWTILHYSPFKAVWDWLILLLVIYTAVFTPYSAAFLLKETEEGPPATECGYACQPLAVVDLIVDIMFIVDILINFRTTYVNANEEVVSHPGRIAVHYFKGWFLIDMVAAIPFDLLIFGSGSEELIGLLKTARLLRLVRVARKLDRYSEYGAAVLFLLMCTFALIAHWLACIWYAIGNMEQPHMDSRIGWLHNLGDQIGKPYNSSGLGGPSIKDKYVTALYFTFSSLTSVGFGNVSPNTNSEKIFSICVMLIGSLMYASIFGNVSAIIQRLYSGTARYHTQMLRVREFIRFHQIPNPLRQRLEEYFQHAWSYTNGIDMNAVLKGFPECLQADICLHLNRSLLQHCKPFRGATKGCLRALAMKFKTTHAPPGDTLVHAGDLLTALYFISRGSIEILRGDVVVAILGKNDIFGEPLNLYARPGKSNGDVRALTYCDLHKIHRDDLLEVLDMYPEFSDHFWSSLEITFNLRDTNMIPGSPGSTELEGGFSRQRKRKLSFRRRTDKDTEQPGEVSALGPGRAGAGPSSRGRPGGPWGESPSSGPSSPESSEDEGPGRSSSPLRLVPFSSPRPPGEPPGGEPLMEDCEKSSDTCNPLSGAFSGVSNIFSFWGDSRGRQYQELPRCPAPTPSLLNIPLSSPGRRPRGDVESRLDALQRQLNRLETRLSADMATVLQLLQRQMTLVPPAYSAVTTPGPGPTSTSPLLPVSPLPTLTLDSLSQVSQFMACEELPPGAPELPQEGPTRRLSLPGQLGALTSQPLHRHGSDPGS
PHD1, sequence (Q96KS0 whole entry): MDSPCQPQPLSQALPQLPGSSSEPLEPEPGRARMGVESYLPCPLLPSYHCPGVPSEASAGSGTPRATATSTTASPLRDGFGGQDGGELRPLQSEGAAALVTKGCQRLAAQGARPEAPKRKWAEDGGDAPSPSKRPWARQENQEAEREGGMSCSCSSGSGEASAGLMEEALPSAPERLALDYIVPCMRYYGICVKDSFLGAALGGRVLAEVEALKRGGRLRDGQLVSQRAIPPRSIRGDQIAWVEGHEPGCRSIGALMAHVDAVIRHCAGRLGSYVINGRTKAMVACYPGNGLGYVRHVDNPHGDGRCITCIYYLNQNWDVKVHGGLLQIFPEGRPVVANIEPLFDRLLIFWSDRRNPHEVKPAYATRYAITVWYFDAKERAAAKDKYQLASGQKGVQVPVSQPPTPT
PHD3, sequence (Q9H6Z9 whole entry): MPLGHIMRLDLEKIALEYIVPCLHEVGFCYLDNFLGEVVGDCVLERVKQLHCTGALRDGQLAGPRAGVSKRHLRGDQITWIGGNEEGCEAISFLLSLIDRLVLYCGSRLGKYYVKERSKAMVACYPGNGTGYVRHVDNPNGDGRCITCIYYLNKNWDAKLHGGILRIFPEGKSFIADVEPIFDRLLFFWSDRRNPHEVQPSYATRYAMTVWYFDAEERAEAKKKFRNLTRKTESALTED
CYP2D6, sequence (P10635 whole entry): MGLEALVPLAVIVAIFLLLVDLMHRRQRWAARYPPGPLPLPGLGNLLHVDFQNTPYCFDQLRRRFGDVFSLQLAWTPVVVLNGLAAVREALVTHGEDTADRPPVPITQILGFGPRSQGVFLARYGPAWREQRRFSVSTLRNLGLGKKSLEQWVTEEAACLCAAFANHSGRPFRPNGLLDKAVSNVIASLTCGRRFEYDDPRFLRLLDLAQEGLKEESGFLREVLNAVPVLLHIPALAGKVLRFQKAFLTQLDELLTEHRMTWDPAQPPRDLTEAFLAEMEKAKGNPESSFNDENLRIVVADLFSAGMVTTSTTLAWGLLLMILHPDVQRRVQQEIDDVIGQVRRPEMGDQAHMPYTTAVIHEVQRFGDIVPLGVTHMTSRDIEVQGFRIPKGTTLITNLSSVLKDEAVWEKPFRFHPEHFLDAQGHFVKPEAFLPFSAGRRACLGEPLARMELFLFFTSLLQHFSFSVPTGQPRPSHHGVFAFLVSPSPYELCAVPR
CYP3A4-M, sequence (P08684 whole entry): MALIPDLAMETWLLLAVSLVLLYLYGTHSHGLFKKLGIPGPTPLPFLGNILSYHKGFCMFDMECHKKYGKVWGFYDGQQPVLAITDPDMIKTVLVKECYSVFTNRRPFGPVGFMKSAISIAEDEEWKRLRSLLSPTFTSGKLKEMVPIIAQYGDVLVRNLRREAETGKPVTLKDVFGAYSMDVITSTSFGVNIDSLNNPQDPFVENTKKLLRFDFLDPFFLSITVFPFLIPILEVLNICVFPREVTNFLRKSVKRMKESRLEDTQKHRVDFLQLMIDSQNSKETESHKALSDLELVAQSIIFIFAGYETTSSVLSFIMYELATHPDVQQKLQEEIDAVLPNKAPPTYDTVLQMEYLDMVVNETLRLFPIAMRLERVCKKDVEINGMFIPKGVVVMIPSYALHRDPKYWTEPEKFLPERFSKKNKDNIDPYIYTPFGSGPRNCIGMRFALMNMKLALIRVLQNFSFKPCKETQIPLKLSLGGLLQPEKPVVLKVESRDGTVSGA
CYP2C19, sequence (P33261 whole entry): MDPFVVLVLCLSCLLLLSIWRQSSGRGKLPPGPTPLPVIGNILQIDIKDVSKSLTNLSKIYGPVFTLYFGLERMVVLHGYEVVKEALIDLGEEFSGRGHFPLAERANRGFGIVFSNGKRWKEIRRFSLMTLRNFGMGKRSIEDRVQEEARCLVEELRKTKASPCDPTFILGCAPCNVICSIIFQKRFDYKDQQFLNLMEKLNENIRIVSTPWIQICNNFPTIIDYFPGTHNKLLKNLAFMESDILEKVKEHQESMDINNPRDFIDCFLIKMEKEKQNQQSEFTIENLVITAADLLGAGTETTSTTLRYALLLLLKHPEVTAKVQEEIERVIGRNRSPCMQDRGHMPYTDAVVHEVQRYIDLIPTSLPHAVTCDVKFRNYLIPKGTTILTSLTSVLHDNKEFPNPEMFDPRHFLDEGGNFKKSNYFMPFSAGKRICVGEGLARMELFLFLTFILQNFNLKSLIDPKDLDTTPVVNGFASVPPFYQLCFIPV
CYP2C9, sequence (P11712 whole entry): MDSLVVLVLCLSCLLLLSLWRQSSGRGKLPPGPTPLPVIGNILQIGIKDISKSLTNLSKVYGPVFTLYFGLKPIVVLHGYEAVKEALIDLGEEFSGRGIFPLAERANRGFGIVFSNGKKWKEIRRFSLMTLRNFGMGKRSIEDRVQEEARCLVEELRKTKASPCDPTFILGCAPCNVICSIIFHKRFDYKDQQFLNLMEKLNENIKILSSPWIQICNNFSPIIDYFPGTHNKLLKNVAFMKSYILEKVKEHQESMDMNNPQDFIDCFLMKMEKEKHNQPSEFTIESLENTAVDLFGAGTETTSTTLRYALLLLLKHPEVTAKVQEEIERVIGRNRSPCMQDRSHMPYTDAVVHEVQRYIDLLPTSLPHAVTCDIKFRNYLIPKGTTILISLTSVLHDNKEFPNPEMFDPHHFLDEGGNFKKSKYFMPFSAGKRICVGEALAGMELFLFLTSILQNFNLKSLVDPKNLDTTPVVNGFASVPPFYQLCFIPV
CYP1A2, sequence (P05177 whole entry): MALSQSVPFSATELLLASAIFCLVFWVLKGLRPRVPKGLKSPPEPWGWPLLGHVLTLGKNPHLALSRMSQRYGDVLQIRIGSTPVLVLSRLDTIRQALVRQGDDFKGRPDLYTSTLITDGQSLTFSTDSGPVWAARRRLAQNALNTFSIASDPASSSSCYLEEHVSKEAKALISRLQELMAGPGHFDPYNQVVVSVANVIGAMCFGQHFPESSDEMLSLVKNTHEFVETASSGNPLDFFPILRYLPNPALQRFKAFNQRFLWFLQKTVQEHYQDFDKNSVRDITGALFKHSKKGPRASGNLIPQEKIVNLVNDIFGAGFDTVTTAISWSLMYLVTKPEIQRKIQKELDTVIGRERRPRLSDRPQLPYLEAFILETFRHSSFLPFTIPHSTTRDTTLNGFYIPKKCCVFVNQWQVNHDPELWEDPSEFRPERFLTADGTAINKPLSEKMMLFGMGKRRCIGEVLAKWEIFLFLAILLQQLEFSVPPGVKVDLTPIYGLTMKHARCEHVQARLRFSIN
PHD2, sequence (Q9GZT9 whole entry): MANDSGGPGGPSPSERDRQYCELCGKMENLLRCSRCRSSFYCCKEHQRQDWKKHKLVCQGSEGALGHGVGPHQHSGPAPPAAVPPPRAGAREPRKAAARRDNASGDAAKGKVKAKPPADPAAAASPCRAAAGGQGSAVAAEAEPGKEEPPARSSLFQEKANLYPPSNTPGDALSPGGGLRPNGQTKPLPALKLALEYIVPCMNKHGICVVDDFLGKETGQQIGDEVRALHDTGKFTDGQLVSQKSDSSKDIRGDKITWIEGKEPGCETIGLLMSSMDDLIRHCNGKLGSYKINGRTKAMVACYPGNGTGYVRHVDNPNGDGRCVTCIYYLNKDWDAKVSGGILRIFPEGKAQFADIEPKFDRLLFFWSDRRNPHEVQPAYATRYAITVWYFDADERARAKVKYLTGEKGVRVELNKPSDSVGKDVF

IC50 (PHD1) [nM]	IC50 (PHD3) [nM]	IC50 (CYP1A2) [nM]	IC50 (CYP2C9) [nM]	IC50 (CYP2D6) [nM]	IC50 (CYP3A4-M) [nM]	IC50 (CYP2C19) [nM]	Structure (SMILES)	HIF-1α protein expression compared with blank control (HIF-1α)	fold induction at 30 µM (HIF-1α; [2])	EPO-enhancing effect compared with positive control drug FG4592 [1]	Reticulocytes (RETIC), average (reticulocytes)	IC50 (hERG channels) [nM]	Inhibitory effect on hERG current at the highest test concentration (hERG channels)	EPO OD value (erythropoietin; 10 mg/kg)	EPO OD value (erythropoietin; 50 mg/kg)	Promotion of expression of erythropoietin in vivo (erythropoietin)	HIF-2α protein expression compared with blank control (HIF-2α)	fold induction at 30 µM (HIF-2α; [2])	other results
273	561	–	–	–	–	–	O=C(O)CNC(=O)c1nc(Cl)c2cc(Oc3ccccc3)ccc2c1O [Comparative Example 1, reference compound]	–	–	–	–	–	–	–	–	–	–	–	–
335	492	–	–	–	–	–	O=C(O)CNC(=O)c1ncc2nc(Oc3ccccc3)ccc2c1O [Comparative Example 2, 2-(5-hydroxy-2-phenoxy-1,7-naphthyridine-6-formamido) acetic acid, reference compound]	–	–	–	–	–	–	–	–	–	–	–	–
452	544	–	–	–	–	–	O=C(O)CNC(=O)c1nc(Br)c2cc(Oc3ccccc3)ccc2c1O [Comparative Example 3, reference compound]	–	–	–	–	–	–	–	–	–	–	–	IC50 (PHD2): 951 nM
–	–	> 50000	> 50000	> 50000	> 50000	> 50000	O=C(O)CNC(=O)c1nc(Cl)c2nc(Oc3ccccc3Cl)ccc2c1O [Link-124, 2-(2-(2-chlorophenoxy)-5-hydroxy-8-chloro-1,7-naphthyridine-6-formamido) Acetic Acid]	higher than that of the blank control	4.5 to 8.5	higher than that of the positive control drug FG4592	6.80	> 30000	far from the IC50 value	D (D represents EPO OD value>3)	D (D represents EPO OD value>3)	significantly promote the expression of erythropoietin	higher than that of the blank control	4.5 to 8.5	–
–	–	> 50000	> 50000	> 50000	> 50000	> 50000	O=C(O)CNC(=O)c1nc(Br)c2nc(Oc3ccc(Cl)cc3)ccc2c1O [Link-129, 2-(2-(4-chlorophenoxy)-5-hydroxy-8-bromo-1,7-naphthyridine-6-formamido) Acetic Acid]	higher than that of the blank control	1 to 4.5	–	7.30	> 30000	far from the IC50 value	D (D represents EPO OD value>3)	D (D represents EPO OD value>3)	significantly promote the expression of erythropoietin	higher than that of the blank control	1 to 4.5	–
–	–	–	–	–	–	–	O=C(O)CNC(=O)c1nc(Cl)c2nc(Oc3ccc(F)cc3)ccc2c1O [Link-130, 2-(2-(4-fluorophenoxy)-5-hydroxy-8-chloro-1,7-naphthyridine-6-formamido) Acetic Acid]	higher than that of the blank control	–	higher than that of the positive control drug FG4592	–	–	–	C (C represents 2<EPO OD value<3)	D (D represents EPO OD value>3)	significantly promote the expression of erythropoietin	higher than that of the blank control	–	HIF-1α level of the compound of the present disclosure/HIF-1α level of blank control (HIF-1α; [2]): B (B represents 4.5 < protein ratio < 8.5); EPO level of the compound of the present disclosure/EPO level of FG4592 ([1]; 24 h, compound at 100 μM and 10 μM, supernatant ELISA): C (C represents EPO ratio ≥ 1.3); HIF-2α level of the compound of the present disclosure/HIF-2α level of blank control (HIF-2α; [2]): B (B represents 4.5 < protein ratio < 8.5)
